Data published in US9629815B2, “Benzoquinone derivatives for treating oxidative stress disorders” (Edison Pharmaceuticals, Inc., priority 2012, dated 2017).
pEC50: −log10 of the molar value.

How the values were obtained:
Type in all cases: cell-based
[1] = system: Human dermal fibroblasts from Friedreich's Ataxia patients; experiment: Rescue of BSO-stressed FRDA fibroblasts (Calcein AM viability); conditions: FRDA fibroblasts GM04078, 1 mM BSO, 48 h, read-out: protection against FRDA, EC50
Protocol: Test samples and solvent controls were tested for their ability to rescue FRDA fibroblasts stressed by addition of L-buthionine-(S,R)-sulfoximine (BSO), as described in Jauslin et al., Hum. Mol. Genet. 11(24):3055 (2002), Jauslin et al., FASEB J. 17:1972-4 (2003), and International Patent Application WO 2004/003565. […] This specific BSO-mediated cell death can be prevented by administration of antioxidants or molecules involved in the antioxidant pathway, such as alpha-tocopherol, selenium, or small molecule glutathione peroxidase mimetics. However, antioxidants differ in their potency, i.e. the concentration at which they are able to rescue BSO-stressed FRDA fibroblasts.
MEM (a medium enriched in amino acids and vitamins, catalog no. 1-31F24-I) and Medium 199 (M199, catalog no. 1-21F22-I) with Earle's Balanced Salts, without phenol red, were purchased from Bioconcept. Fetal Calf Serum was obtained from PAA Laboratories. Basic fibroblast growth factor and epidermal growth factor were purchased from PeproTech. 2,3,5-trimethyl-6-(12-hydroxy-5,10-dodecadiynyl)-1,4-benzoquinone, penicillin-streptomycin-glutamine mix, L-buthionine (S,R)-sulfoximine, and insulin from bovine pancreas were purchased from Sigma. Calcein AM was purchased from Molecular Probes. […]

[2] = system: human dermal fibroblasts from LHON patients; experiment: Rescue of fibroblasts from LHON patients from oxidative stress; conditions: Fibroblast, LHON cells GM03858, screen similar to Example 1, read-out: protection against LHON, EC50
[3] = system: human dermal fibroblasts from Huntington's patients; experiment: Rescue of fibroblasts from Huntington's patients from oxidative stress; conditions: Fibroblast, Huntington's cells GM 04281, screen similar to Example 1, read-out: protection against Huntington's, EC50
[4] = system: human dermal fibroblasts from Parkinson's Disease patients; experiment: Rescue of fibroblasts from Parkinson's Disease patients from oxidative stress; conditions: Fibroblast, PD cells AG20439, screen similar to Example 1, read-out: protection against Parkinson's Disease, EC50

## CC1=C(C)C(=O)C(CCCCC#CCCCC#CCO)=C(C)C1=O [2,3,5-trimethyl-6-(12-hydroxy-5,10-dodecadiynyl)-1,4-benzoquinone]
[1]
  pEC50: > 7.00
[2]
  pEC50: > 7.00
[3]
  pEC50: > 7.30
[4]
  pEC50: > 7.00
